The record followed here is ChEMBL document CHEMBL1156895 (Bioorg Med Chem Lett, 2010).

Each structure is given as a SMILES string. Activity calls are given as the source filed them. The rule behind the calls is not given here.

For series [1], the target named is T1, Prostaglandin G/H synthase 1 (Ovis aries, UniProt P05979).
T1 sequence (P05979 whole entry): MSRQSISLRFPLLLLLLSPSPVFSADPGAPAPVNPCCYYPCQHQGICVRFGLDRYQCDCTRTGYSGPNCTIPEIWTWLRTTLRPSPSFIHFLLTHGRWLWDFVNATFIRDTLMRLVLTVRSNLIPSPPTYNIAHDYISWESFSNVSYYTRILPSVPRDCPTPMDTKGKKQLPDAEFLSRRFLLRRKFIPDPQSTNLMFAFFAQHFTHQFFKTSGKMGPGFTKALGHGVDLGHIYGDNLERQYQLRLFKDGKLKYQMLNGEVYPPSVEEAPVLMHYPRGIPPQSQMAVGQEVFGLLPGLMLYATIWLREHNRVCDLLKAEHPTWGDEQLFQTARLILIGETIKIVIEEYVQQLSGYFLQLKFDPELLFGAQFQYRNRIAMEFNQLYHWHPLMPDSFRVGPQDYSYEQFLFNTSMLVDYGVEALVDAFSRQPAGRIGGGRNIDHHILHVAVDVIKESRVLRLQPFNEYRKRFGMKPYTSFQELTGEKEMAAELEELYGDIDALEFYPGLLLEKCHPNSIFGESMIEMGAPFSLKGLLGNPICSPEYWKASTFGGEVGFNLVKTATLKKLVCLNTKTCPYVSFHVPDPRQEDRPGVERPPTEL
Description: Inhibition of ovine COX1 by enzyme immunoassay

The nature of series [2]: Induction of NO release in phosphate buffer at pH 7.4. It counts as physicochemical.
A short description of series [3]: Induction of NO release in presence of 5 mM L-cysteine. It counts as physicochemical.
The subject of series [4] is Rattus norvegicus. The series can be described thus: Antiinflammatory activity in po dosed rat assessed as inhibition of carrageenan-induced paw edema. It counts as functional. In general terms: In the carrageenan paw model, swelling and tenderness develop within hours.
For series [5], the species on record is Rattus norvegicus. Conditions: 100 mg/kg.
Series [6] is filed under the species Rattus norvegicus. Nature of the series: animal or person. The settings on record: po, read-out: INH.
The target in series [7] is T2, Prostaglandin G/H synthase 1 (Ovis aries) (UniProt P05979).
T2 sequence (whole entry): T1 sequence (P05979 whole entry)
The series can be described thus: Inhibition of ovine COX1 at 100 uM by enzyme immunoassay.

Series [8] is described as follows: Selectivity ratio of IC50 for ovine COX1 to IC50 for human recombinant COX2.

What is called IC50 is the concentration at which inhibition is half-maximal. A word on the ED50: it is the dose that gives a 50% effect, or the effect in half of the subjects.

Take `CS(=O)(=O)c1ccc(-n2nc(C(F)(F)F)cc2C2=CCN(CCCCO[N+](=O)[O-])CC2)cc1`: the concentration for half-maximal inhibition (IC50) in series [1] stood at 34.7 µM. Besides, the Activity is 3.1% in series [2] and 3.8% in series [3]. Further, the median effective dose (ED50) with Rattus norvegicus [4] turned out to be 118 mg/kg.

For the compound `NS(=O)(=O)c1ccc(-n2nc(C(F)(F)F)cc2C2=CCN(CCCCO[N+](=O)[O-])CC2)cc1`, the inhibition entry in the series filed under Rattus norvegicus [5] was “inactive”. In addition, the IC50 in series [1] is 16.2 µM. The values for the Activity in series [2] and in series [3] were 5.8% and 7.1%, respectively.

As for `CC(C)Cc1ccc(C(C)C(=O)O)cc1` (stereo unspecified) [IBUPROFEN], in the series on Rattus norvegicus [4], the ED50 turned out to be 67.4 mg/kg.

With `NS(=O)(=O)c1ccc(-n2nc(C(F)(F)F)cc2C2CCN(CCCCO[N+](=O)[O-])CC2)cc1`, 19.8 µM corresponded to half-maximal inhibition in series [1] (IC50). In the series listed under Rattus norvegicus [6], the inhibition in vivo at 100 mg/kg is 9%. Also, the Activity in series [2] was 2.4%; in series [3], 3.1%.

Regarding `CS(=O)(=O)c1ccc(-n2nc(C(F)(F)F)cc2C2CCN(CCCCO[N+](=O)[O-])CC2)cc1`, in series [7], the inhibition result was “inactive”. In addition, the IC50 in series [1] was greater than 100 µM. The Ratio IC50 in series [8] is greater than 6. Also, the Activity is 3.8% in series [2] and 8.4% in series [3]. For the same compound, the ED50 in the series on Rattus norvegicus [4] was 132 mg/kg.

On to `O=[N+]([O-])OCC(CO[N+](=O)[O-])O[N+](=O)[O-]` [NITROGLYCERIN], for which the Activity in series [2] turned out to be 2.8%; in series [3], 10.1%.
